The values below come from US10508085B2, “Compounds and methods for IDO and TDO modulation, and indications therefor” (Plexxikon Inc., priority 2016, dated 2019).

Where two headings read alike, the source gives them in different places.

For assay [1], the target named is T1, human TDO (TDO-expressing HEK293 cells) (Homo sapiens, UniProt P48775).
T1 construct: expressed in transfected cells
The experiment in a line: Cell based kynurenine assay, TDO-expressing HEK293 cell clones. Particulars: TDO-expressing HEK293 cells, geometric mean, read-out: HEK293 TDO Kynurenine GMean IC50 (μM) (Cellular Assay). In outline: (§1)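 IC50 values come from nonlinear regression of kynurenine reduction in supernatants of human IDO1- or TDO-expressing HEK293 cells incubated 24 h with serially diluted compounds, normalised to cell and media-only controls containing 0.2% DMSO.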

Assay [2] addresses T2, Human Tryptophan 2,3-dioxygenase (TDO) (Homo sapiens, UniProt P48775).
T2 construct: His tag (N); made in house; host or cells: E. coli
The experiment in a line: Human TDO enzymatic assay (kynurenine level). It is filed as biochemical. Particulars: 1 nM TDO, 350 μM L-Trp; geometric mean; read-out: TDO GMean: IC50 (μM) (Biochemical Assay). In outline:
(§2)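 IDO conditions: 6 nM His-IDO, 10 μM L-Trp, 5 μM methylene blue, 20 min, RT. TDO conditions: 1 nM His-TDO, 350 μM L-Trp, 0.4 μM methylene blue, 70 min, RT. Both used pH 6.5 phosphate plus ascorbate/catalase, TCA stop at 50° C, kynurenine readout, nonlinear-regression IC50.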

Assay [3] has as its target T3, human IDO (IDO1-expressing HEK293 cells) (Homo sapiens, UniProt P14902).
T3 construct: expressed in transfected cells
Kind of assay: Cell based kynurenine assay, IDO1-expressing HEK293 cell clones. The note with it: IDO1-expressing HEK293 cells, geometric mean, read-out: HEK293 IDO1 Kynurenine GMean IC50 (μM) (Cellular Assay). The essentials:
as §1

Assay [4] addresses T4, Human Indoleamine 2,3-dioxygenase (IDO) (Homo sapiens, UniProt P14902).
T4 construct: His tag (N); made in house; host or cells: E. coli
The experiment in a line: Human IDO enzymatic assay (kynurenine level). It is filed as biochemical. The note with it: 6 nM IDO, 10 μM L-Trp; geometric mean; read-out: IDO1 GMean: IC50 (μM) (Biochemical Assay). In outline: as §2

T3 sequence (P14902 whole entry): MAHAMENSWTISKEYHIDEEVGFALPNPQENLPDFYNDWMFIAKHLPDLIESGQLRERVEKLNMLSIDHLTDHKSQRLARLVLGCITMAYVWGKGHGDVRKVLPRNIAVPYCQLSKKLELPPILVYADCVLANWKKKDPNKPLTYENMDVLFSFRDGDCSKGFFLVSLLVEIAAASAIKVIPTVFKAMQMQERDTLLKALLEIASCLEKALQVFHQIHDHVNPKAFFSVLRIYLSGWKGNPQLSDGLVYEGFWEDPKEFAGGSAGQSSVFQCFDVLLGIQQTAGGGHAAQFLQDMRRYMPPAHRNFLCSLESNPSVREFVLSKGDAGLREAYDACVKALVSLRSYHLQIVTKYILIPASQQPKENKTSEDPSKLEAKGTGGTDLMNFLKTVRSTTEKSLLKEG
T4 sequence (P14902 whole entry): as above
T2 sequence (P48775 whole entry): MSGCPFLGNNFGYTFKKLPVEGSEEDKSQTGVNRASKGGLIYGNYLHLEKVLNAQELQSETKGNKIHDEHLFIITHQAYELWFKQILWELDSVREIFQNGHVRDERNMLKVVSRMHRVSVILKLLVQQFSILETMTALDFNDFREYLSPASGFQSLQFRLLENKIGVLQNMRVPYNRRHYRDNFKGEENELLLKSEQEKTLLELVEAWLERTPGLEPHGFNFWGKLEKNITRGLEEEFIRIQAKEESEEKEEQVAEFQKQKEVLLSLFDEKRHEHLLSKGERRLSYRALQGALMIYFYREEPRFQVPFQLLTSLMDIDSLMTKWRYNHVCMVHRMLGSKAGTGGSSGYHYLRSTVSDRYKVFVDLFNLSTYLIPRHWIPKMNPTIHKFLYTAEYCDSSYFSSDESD
T1 sequence (P48775 whole entry): as above

By IC50 is commonly meant the midpoint of a concentration-inhibition curve. Consider `NS(=O)(=O)N1CCC(C(F)(F)C(O)c2cc(Cl)cc3cn[nH]c23)CC1` (centres unmarked) [Compound P-0345, 4-(2-(5-chloro-1H-indazol-7-yl)-1,1-difluoro-2-hydroxyethyl) piperidine-1-sulfonamide], for which the IC50 in assay [1] (24 hours incubation), in assay [2], in assay [3] (24 hours incubation) and in assay [4] was 0.0001 to 10 µM each time.

For `CC(C)(C1CCN(C(=O)NCCS(C)(=O)=O)CC1)[C@H](O)c1cc(Cl)cc2cn[nH]c12` [Compound P-0556, (S)-4-(1-(5-chloro-1H-indazol-7-yl)-1-hydroxy-2-methylpropan-2-yl)-N-(2-(methylsulfonyl)ethyl)piperidine-1-carboxamide], the 50% inhibitory concentration (IC50) in assay [1] (24 hours), in assay [2], in assay [3] (24 hours) and in assay [4] was 0.0001 to 10 µM each time.

For the compound `OC(c1c(F)c(Cl)cc2cn[nH]c12)C1(C2CCOCC2)CC1` (centres unmarked) [Compound P-0235, (5-chloro-6-fluoro-1H-indazol-7-yl)(1-(tetrahydro-2H-pyran-4-yl)cyclopropyl)methanol], the IC50 in assay [1] (24 hours incubation), in assay [2], in assay [3] (24 hours incubation) and in assay [4] was 0.0001 to 10 µM throughout.

As for `O=S1(=O)CCC(O)(c2cc(Cl)cc3cn[nH]c23)CC1` [Compound P-0047, 4-(5-chloro-1H-indazol-7-yl)-4-hydroxytetrahydro-2H-thiopyran 1,1-dioxide], the IC50 in assay [1] (24 hours incubation) is 0.0001 to 10 µM; in assay [2], 0.0001 to 10 µM; in assay [3] (24 hours incubation), above 10 µM; in assay [4], 0.0001 to 10 µM.

`CCC(=O)N1CCC(C(F)(F)C(O)c2cc(Cl)cc3cn[nH]c23)CC1` (stereo not drawn) [Compound P-0147, 1-(4-(2-(5-chloro-1H-indazol-7-yl)-1,1-difluoro-2-hydroxyethyl)piperidin-1-yl)propan-l-one]: the IC50 in assay [1] (24 hours incubation), in assay [2], in assay [3] (24 hours incubation) and in assay [4] was 0.0001 to 10 µM throughout.

With `COCCNC(=O)N1CCC(C(C)(C)C(O)c2c(F)c(Cl)cc3cn[nH]c23)CC1` (centres unmarked) [Compound P-0419, 4-(1-(5-chloro-6-fluoro-1H-indazol-7-yl)-1-hydroxy-2-methylpropan-2-yl)-N-(2-methoxyethyl) piperidine-1-carboxamide], the IC50 in assay [1] (24 hours), in assay [2], in assay [3] (24 hours) and in assay [4] was 0.0001 to 10 µM throughout.

Take `CNC(=O)N1CCC(C(C)(C)C(O)c2cc(Cl)cc3cn[nH]c23)CC1` (centres unmarked) [Compound P-0314, 4-(1-(5-chloro-1H-indazol-7-yl)-1-hydroxy-2-methylpropan-2-yl)-N-methylpiperidine-1-carboxamide]: the IC50 in assay [1] (24 hours incubation), in assay [2], in assay [3] (24 hours incubation) and in assay [4] was 0.0001 to 10 µM in each case.

For `CC(C1CC1)(C1CC1)C(O)c1cc(Cl)cc2cn[nH]c12` (centres unmarked) [Compound P-0259, 1-(5-chloro-1H-indazol-7-yl)-2,2-dicyclopropylpropan-1-ol], the half-maximal inhibitory concentration (IC50) in assay [1] (24 hours incubation), in assay [2], in assay [3] (24 hours incubation) and in assay [4] was 0.0001 to 10 µM in each case.

`Cc1noc(C)c1NC(=O)N1CCC(C(C)(C)C(O)c2cc(Cl)cc3cn[nH]c23)CC1` (centres unmarked) [Compound P-0392, 4-(1-(5-chloro-1H-indazol-7-yl)-1-hydroxy-2-methylpropan-2-yl)-N-(3,5-dimethylisoxazol-4-yl)piperidine-1-carboxamide]: the IC50 in assay [1] (24 hours incubation), in assay [2], in assay [3] (24 hours incubation) and in assay [4] was 0.0001 to 10 µM in each case.

`OC1(c2cc(Cl)cc3cn[nH]c23)CC2(C1)[C@H]1C[C@@H]3C[C@@H](C[C@H]2C3)C1` (stereo partly drawn) [Compound P-0100, (1R,5S)-3′-(5-chloro-1H-indazol-7-yl)spiro[adamantane-2,1′-cyclobutan]-3′-ol]: the IC50 in assay [1] (24 hours incubation), in assay [2], in assay [3] (24 hours incubation) and in assay [4] was 0.0001 to 10 µM throughout.

On to `CC1(C(O)c2cc(F)cc3cn[nH]c23)CCCCC1` (centres unmarked) [Compound P-0041, (5-fluoro-1H-indazol-7-yl)(1-methylcyclohexyl)methanol], for which the IC50 in assay [1] (24 hours incubation), in assay [2], in assay [3] (24 hours incubation) and in assay [4] was 0.0001 to 10 µM throughout.

Regarding `O=C(Nc1ccc(F)cc1)N1CCC(C(F)(F)C(O)c2cc(Cl)cc3cn[nH]c23)CC1` (centres unmarked) [Compound P-0151, 4-(2-(5-chloro-1H-indazol-7-yl)-1,1-difluoro-2-hydroxyethyl)-N-(4-fluorophenyl)piperidine-1-carboxamide], the concentration for half-maximal inhibition (IC50) in assay [1] (24 hours incubation), in assay [2], in assay [3] (24 hours incubation) and in assay [4] was 0.0001 to 10 µM in each case.

Consider `CC(C)(C(O)c1cc(Cl)cc2cn[nH]c12)[C@H]1C[C@H]2CC[C@@H](C1)N2S(N)(=O)=O` (stereo partly drawn) [Compound P-0347, (1R,3r,5S)-3-(1-(5-chloro-1H-indazol-7-yl)-1-hydroxy-2-methylpropan-2-yl)-8-azabicyclo[3.2.1] octane-8-sulfonamide], for which the IC50 in assay [1] (24 hours incubation), in assay [2], in assay [3] (24 hours incubation) and in assay [4] was 0.0001 to 10 µM each time.

Consider `OC(c1cc(Cl)cc2[nH]ncc12)C1CCCCC1` (centres unmarked) [Compound P-0173, (6-chloro-1H-indazol-4-yl)(cyclohexyl)methanol], for which the IC50 is 0.0001 to 10 µM in assay [1] (24 hours incubation), 0.0001 to 10 µM in assay [2], above 10 µM in assay [3] (24 hours incubation) and 0.0001 to 10 µM in assay [4].

`CC(C)(C1CCCC1)C(O)c1c(F)c(Cl)c(F)c2cn[nH]c12` (centres unmarked) [Compound P-0252, 1-(5-chloro-4,6-difluoro-1H-indazol-7-yl)-2-cyclopentyl-2-methylpropan-1-ol]: the IC50 is above 10 µM in assay [1] (24 hours incubation), 0.0001 to 10 µM in assay [2], 0.0001 to 10 µM in assay [3] (24 hours incubation) and 0.0001 to 10 µM in assay [4].

Consider `O=S(=O)(c1ccccc1)C1(C(O)c2cc(Cl)cc3cn[nH]c23)CC1` (centres unmarked) [Compound P-0266, (5-chloro-1H-indazol-7-yl)(1-(phenylsulfonyl)cyclopropyl)methanol], for which the 50% inhibitory concentration (IC50) is above 10 µM in assay [1] (24 hours incubation), 0.0001 to 10 µM in assay [2], above 10 µM in assay [3] (24 hours incubation) and 0.0001 to 10 µM in assay [4].

For `CC(C)(C1CCN(S(C)(=O)=O)CC1)C(O)c1c2c(cc3cn[nH]c13)CC2` (centres unmarked) [Compound P-0280, 1-(5,6-dihydro-1H-cyclobuta[f]indazol-7-yl)-2-methyl-2-(1-(methylsulfonyl)piperidin-4-yl)propan-1-ol], the IC50 in assay [1] (24 hours incubation) was above 10 µM; in assay [2], 0.0001 to 10 µM; in assay [3] (24 hours incubation), 0.0001 to 10 µM; in assay [4] it was 0.0001 to 10 µM.

On to `OC1(c2cc(Cl)cc3cn[nH]c23)[C@H]2CCC[C@@H]1CCC2` (stereo partly drawn) [Compound P-0407, (1R,5S)-9-(5-chloro-1H-indazol-7-yl)bicyclo[3.3.1] nonan-9-ol], for which the concentration for half-maximal inhibition (IC50) in assay [1] (24 hours) is 0.0001 to 10 µM; in assay [2], 0.0001 to 10 µM; in assay [3] (24 hours) it was above 10 µM; in assay [4], 0.0001 to 10 µM.

On to `OC(CC1CCOCC1)c1cccc2cncn12` (stereo not drawn) [Compound P-0084, 1-(imidazo[1,5-a]pyridin-5-yl)-2-(tetrahydro-2H-pyran-4-yl)ethan-l-ol], for which the IC50 in assay [1] (24 hours incubation) is above 10 µM; in assay [2], 0.0001 to 10 µM; in assay [3] (24 hours incubation), above 10 µM; in assay [4], 0.0001 to 10 µM.

Consider `CC(C)(N)CC(O)c1cc(Cl)cc2cn[nH]c12` (centres unmarked) [Compound P-0233, 3-amino-1-(5-chloro-1H-indazol-7-yl)-3-methylbutan-1-ol], for which the IC50 in assay [1] (24 hours incubation) was above 10 µM; in assay [2], 10 to 100 µM; in assay [3] (24 hours incubation), above 10 µM; in assay [4] it was 10 to 100 µM.

In the case of `COCC(=O)N1CCC(C(C)(C)[C@H](O)c2c(F)c(Cl)cc3cn[nH]c23)CC1` [Compound P-0506, (S)-1-(4-(1-(5-chloro-6-fluoro-1H-indazol-7-yl)-1-hydroxy-2-methylpropan-2-yl)piperidin-1-yl)-2-methoxyethan-1-one], the IC50 in assay [1] (24 hours), in assay [2], in assay [3] (24 hours) and in assay [4] was 0.0001 to 10 µM each time.

Regarding `O[C@@H](c1cc(Cl)cc2cn[nH]c12)C12CCC(CC1)CC2` [Compound P-0382, (R)-bicyclo[2.2.2] octan-1-yl(5-chloro-1H-indazol-7-yl)methanol], the IC50 in assay [1] (24 hours incubation) was above 10 µM; in assay [2], above 200 µM; in assay [3] (24 hours incubation) it was 0.0001 to 10 µM; in assay [4], 0.0001 to 10 µM.

Consider `CC(C)(C1CCN(C(=O)C2CC2)CC1)C(O)c1c(F)c(Cl)cc2cn[nH]c12` (centres unmarked) [Compound P-0416, (4-(1-(5-chloro-6-fluoro-1H-indazol-7-yl)-1-hydroxy-2-methylpropan-2-yl)piperidin-1-yl)(cyclopropyl) methanone], for which the IC50 in assay [1] (24 hours), in assay [2], in assay [3] (24 hours) and in assay [4] was 0.0001 to 10 µM throughout.
